This is an account of results in patent US20260183350A1, “ANTIBIOTIC-RESISTANT BACTERIA” (priority 2022, published 2026).

The test system of assay [1] is vancomycin-resistant E. faecalis. Kind of assay: VRE nutrient utilization protocol: nitrogen sources, leave-one-out. The conditions noted are these: aerobic; leave-one-out from nitrogen source mixture in minimal medium. Type of assay: cell-based, Enterococcus faecalis. How it is done:
(§1) VRE minimal media consists of potassium phosphate monobasic (4 g/L), potassium phosphate dibasic (14 g/L), sodium citrate (1 g/L), magnesium sulphate (0.2 g/L), ammonium sulphate (2 g/L), adenosine (0.04 g/L), thymine (0.04 g/L), Kao and Michayluk vitamin solution [Sigma, K3129, 50× Stock](5×), glucose (1 g/L) and amino acid solution [Sigma, R7131, RPMI-1640, 50×](25×). If the study was performed under anaerobic conditions, fumarate (5.2 g/L) was added to increase growth of VRE strains. Carbon-free minimal media was prepared by leaving out glucose while nitrogen-free minimal media was prepared without the amino acid solution. Media was filter sterilized with a 0.22 micron filter and used immediately aerobically or degassed overnight if used anaerobically.
(§2) VRE strains were grown on R2A overnight before the cells were suspended in 0.9% saline to an OD of 0.38 (λ=595 nm). A 10% dilution of the cell suspension was prepared using VRE minimal media to achieve a final well OD of […] (λ=595 nm) greater than the sterile media OD. Both carbon and nitrogen source utilization were evaluated by adding the inoculated media and a filter-sterilised nutrient source solution into a well in a 1:1 ration to a final volume of 100 μL in aerobic tests and 200 μL in anaerobic tests. Carbon sources were tested individually and compared to a carbon-free control. To test nitrogen source utilization, a nitrogen source solution was prepared containing L-alanine (2 g/L), L-arginine (2.5 g/L, L-asparagine (0.71 g/L), L-aspartate (0.25 g/L), L-cysteine (0.625 g/L), L-glutamate (0.25 g/L), L-Glycine (0.125 g/L), L-histidine (0.1875 g/L), L-isoleucine (0.625 g/L), L-leucine (0.625 g/L), L-lysine HCl (0.5 g/L), L-methionine (0.1875 g/L), L-phenylalanine (0.1875 g/L), L-proline (0.25 g/L), L-serine (0.375 g/L), L-threonine (0.25 g/L), L-tryptophan (0.0625 g/L), L-tyrosine (0.29 g/L), L-valine (0.25 g/L), N-acetylglucosamine (2 g/L), and uracil (2.5 g/L). To test the strains' ability to utilize individual nitrogen sources, separate solutions were prepared eliminating one nitrogen source each. The change in growth compared to the complete nitrogen source solution control was used to determine nitrogen utilization. All carbon and nitrogen sources were tested in a technical triplicate for each biological replicate. Aerobic plates were incubated with a plate seal while anaerobic plates were not. The aerobic plate reader was set to read the plate (λ=595 nm, 37° C., 22 flashes per well, orbital shaking of 100 rpm for 15 s prior to each read) every 15 minutes for 24 hours. The anaerobic plate reader read the plate (λ=595 nm, 37° C., stationary) every 15 minutes for 24 hours.

For assay [2], the system named is NDM-1 Enterobacter cloacae. Nature of the assay: Nitrogen utilisation assay. To be noted: aerobic; M9 minimal medium with glucose, 0.1% (w/v) nitrogen source. Type of assay: cell-based. How it is done: (§3) New Delhi Metallo-β-lactamase 1 (NDM-1) Escherichia coli, NDM-1 Klebsiella pneumoniae, and NDM-1 Enterobacter cloacae were isolated from patients with intestinal CRE colonisation from the Imperial College Healthcare NHS Trust via rectal swab (REC ref. 19/LO/0112). The species were assigned by matrix assisted laser desorption ionization-time of flight (MALDI-TOF) mass spectrometry and later confirmed with 16S rRNA gene sequencing. CRE status was determined using X-pert Carba-R PCR detection (Cepheid, Sunnyvale, CA, USA), (Otter, J. A. et al. Detecting carbapenemase-producing Enterobacterales (CPE): an evaluation of an enhanced CPE infection control and screening programme in acute care. J Antimicrob Chemother 75, 2670-2676 (2020)).
(§4) Growth of CRE isolates on sole carbon or nitrogen sources was tested by inoculating each CRE isolate into a minimal medium supplemented with the nutrient of interest. First, CRE isolates were passaged from frozen glycerol stocks on Reasoner's 2A agar (R2A) plates. Cells were then suspended in M9 minimal media to a turbidity of 42% using a Turbidimeter (Biolog Inc.), then diluted a further 1 in 6 to inoculate the carbon or nitrogen utilisation assays. M9 minimal media contained the following (at final concentrations): 22 mM KH2PO4, 42 mM Na2HPO4, 9 mM NaCl, 0.49 mM MgSO4·7H2O, 0.09 mM CaCl2), 0.011 mM FeSO4·7H2O. For the carbon assays the M9 minimal medium was also supplemented with 0.1% (w/v) NH4Cl (as the nitrogen source) and the carbon sources were individually tested at 0.5% (w/v) concentration. For the nitrogen assays the M9 minimal medium was also supplemented with 0.5% (w/v) glucose (as the carbon source) and the nitrogen sources were individually tested at 0.1% (w/v) concentration. Cultures were incubated anaerobically and aerobically in a plate reader and OD600 readings were collected every 15 minutes for 24 hours.
(§5) Growth curves were analysed in Python (v3.6.5) using the AMiGA software (Midani, F. S., Collins, J. & Britton, R. A. AMiGA: Software for Automated Analysis of Microbial Growth Assays. mSystems 6, e0050821 (2021)). Growth of each isolate was measured with 6 wells from 2-3 independent experiments. Growth curves were normalised to the no substrate control using the subtraction method. AMiGA performed Gaussian Process regression to test differential growth between the substrate and the no substrate control. The functional difference in the OD (and its credible interval) was also computed between the substrate and the no substrate control.

In assay [3] the test system is NDM-1 Escherichia coli. Nature of the assay: Nitrogen utilisation assay. It counts as cell-based. To be noted: M9 minimal medium with glucose, 0.1% (w/v) nitrogen source. How it is done:
as §3, §4, §5

Assay [4] relates to NDM-1 Klebsiella pneumoniae. Nature of the assay: Nitrogen utilisation assay. Type of assay: cell-based. The conditions noted are these: aerobic; M9 minimal medium with glucose, 0.1% (w/v) nitrogen source. How it is done:
as §3, §4, §5

Assay [5] concerns NDM-1 Enterobacter cloacae. Nature of the assay: Nutrient preference assay (nutrient mixture). Type of assay: cell-based. To be noted: M9 with […] of each nutrient, up to 24 hours. How it is done: as §3
(§6) CRE isolates were passaged once from frozen glycerol stocks on R2A plates. Cells were suspended in M9 minimal media to a turbidity of 42% using a Turbidimeter (Biolog Inc.), then diluted 1 in 6 to inoculate the nutrient preference assays. M9 minimal media was supplemented with 0.015% of each of the following: L-arabinose, D-fructose, L-fucose, D-galactose, D-glucose, D-mannose, D-ribose, D-xylose, N-acetylglucosamine, D-maltose, sucrose, D-trehalose, L-alanine, L-arginine, L-aspartate, L-glutamate, L-glycine, L-isoleucine, L-leucine, L-lysine, L-methionine, L-phenylalanine, L-proline, L-threonine, L-tryptophan, L-tyrosine, L-valine, uracil, and succinate. Cultures were incubated anaerobically and aerobically in a plate reader and OD600 readings were collected every 15 minutes for 24 hours. Cultures were also incubated anaerobically and aerobically for 24 h and samples were collected at 0, 4, 8, and 24 hours post-inoculation for 1H-NMR spectroscopy. Changes in nutrients and metabolites by CRE isolates was compared to the sterile media control over time using a two-way mixed ANOVA followed by pairwise comparisons with Bonferroni correction. […]

For assay [6], the system named is NDM-1 Escherichia coli. Nature of the assay: Nutrient preference assay (nutrient mixture). Type of assay: cell-based. The conditions noted are these: M9 with […] of each nutrient, up to 24 hours. How it is done:
as §3, §6

For assay [7], the system named is NDM-1 Klebsiella pneumoniae. Nature of the assay: Nutrient preference assay (nutrient mixture). Type of assay: cell-based. The conditions noted are these: M9 with […] of each nutrient, up to 24 hours. How it is done:
as §3, §6

The subject of assay [8] is vancomycin-resistant E. faecium. Nature of the assay: VRE nutrient utilization protocol: nitrogen sources, leave-one-out. It counts as cell-based, Enterococcus faecium. The conditions noted are these: aerobic; leave-one-out from nitrogen source mixture in minimal medium. How it is done: as §1, §2
The test system of assay [9] is NDM-1 Enterobacter cloacae. Kind of assay: Carbon utilisation assay. The conditions noted are these: aerobic; M9 minimal medium, 0.5% (w/v) carbon source. It counts as cell-based. How it is done:
as §3, §4, §5

The test system of assay [10] is NDM-1 Klebsiella pneumoniae. Kind of assay: Carbon utilisation assay. It counts as cell-based. The conditions noted are these: aerobic; M9 minimal medium, 0.5% (w/v) carbon source. How it is done: as §3, §4, §5

`N[C@@H](CS)C(=O)O` [cysteine, L-cysteine]: in assay [1], the “Use as nitrogen source to support E. faecalis growth” value (“Use … to support E. faecalis growth” for short) is “could use”.
On to `O=c1cc[nH]c(=O)[nH]1` [uracil], for which the “Use as sole nitrogen source to support E. cloacae growth” value in [2] is on record as “able to grow”. Besides, the “Use as sole nitrogen source to support E. coli growth” value (from here on “Use … to support E. coli growth”) in the assay on NDM-1 Escherichia coli [3] (aerobic) was “able to grow”. In assay [4], the “Use as sole nitrogen source to support K. pneumoniae growth” value is listed as “able to grow”. The “Utilisation of nutrient by E. cloacae from nutrient mixture (1H-NMR)” value (shortened to “Utilisation of nutrient by E. cloacae”) in assay [5] (aerobic) was “did not use”; in [5] (anaerobic) it was “did not utilise”. The “Utilisation of nutrient by E. coli from nutrient mixture (1H-NMR)” value (“Utilisation of nutrient by E. coli” for short) in the assay on NDM-1 Escherichia coli [6] (aerobic) and in the assay on NDM-1 Escherichia coli [6] (anaerobic) was “moderate utilisation” each time. Moreover, the “Utilisation of nutrient by K. pneumoniae from nutrient mixture (1H-NMR)” value (“Utilisation of nutrient by K. pneumoniae” for short) in assay [7] (aerobic) is “low utilisation”; in assay [7] (anaerobic) it was “did not utilise”.
As to `N[C@@H](Cc1ccccc1)C(=O)O` [phenylalanine, L-phenylalanine], in [2], the “Use as sole nitrogen source to support E. cloacae growth” value is on record as “able to grow”. Also, the “Use as nitrogen source to support E. faecium growth” value (shortened to “Use … to support E. faecium growth”) in [8] was “could use”.
In the case of `N[C@@H](CO)C(=O)O` [serine, L-serine], in assay [1], the “Use … to support E. faecalis growth” value is reported as “could use”. In assay [8], the “Use … to support E. faecium growth” value is recorded as “could use”.
With `C[C@@H](O)[C@H](N)C(=O)O` [threonine, L-threonine], in assay [2], the “Use as sole nitrogen source to support E. cloacae growth” value is reported as “able to grow”. The “Use … to support E. coli growth” value in the assay with NDM-1 Escherichia coli [3] (aerobic) was “able to grow”. Besides, the “Utilisation of nutrient by E. cloacae” value in [5] (aerobic) and in assay [5] (anaerobic) was “high utilisation” throughout. Moreover, the “Utilisation of nutrient by E. coli” value with NDM-1 Escherichia coli [6] (aerobic) was “moderate utilisation”. For the same compound, the “Utilisation of nutrient by K. pneumoniae” value in [7] (aerobic) is recorded as “high utilisation”. For the same compound, in assay [8], the “Use … to support E. faecium growth” value is on record as “could use”.
As for `CSCC[C@H](N)C(=O)O` [methionine, L-methionine], the “Use as sole nitrogen source to support E. cloacae growth” value in assay [2] is “able to grow”. The “Use … to support E. coli growth” value with NDM-1 Escherichia coli [3] (aerobic) was “able to grow”. Also, the “Use as sole nitrogen source to support K. pneumoniae growth” value in assay [4] is listed as “able to grow”. The “Use … to support E. faecalis growth” value in assay [1] was “could use”. Besides, in assay [8], the “Use … to support E. faecium growth” value is listed as “could use”.
As for `C[C@H](O)[C@@H](O)[C@@H](O)[C@H](O)C=O` [fucose, L-fucose], the “Use as sole carbon source to support E. cloacae growth” value in [9] is reported as “able to grow”. For the same compound, the “Utilisation of nutrient by K. pneumoniae” value in assay [7] (aerobic) and in assay [7] (anaerobic) was “not utilised” each time.
Consider `O=C(O)[C@@H]1CCCN1` [proline, L-proline], for which the “Use as sole carbon source to support K. pneumoniae growth” value in assay [10] was “able to grow”. The “Use as sole nitrogen source to support E. cloacae growth” value in assay [2] was “able to grow”. Besides, in the assay with NDM-1 Escherichia coli [3] (aerobic), the “Use … to support E. coli growth” value is listed as “able to grow”. In [4], the “Use as sole nitrogen source to support K. pneumoniae growth” value is “able to grow”. Moreover, the “Utilisation of nutrient by E. cloacae” value in assay [5] (aerobic) and in [5] (anaerobic) was “not utilised” in each case. Also, the “Utilisation of nutrient by E. coli” value in the assay on NDM-1 Escherichia coli [6] (aerobic) and with NDM-1 Escherichia coli [6] (anaerobic) was “not utilised” each time. Besides, the “Utilisation of nutrient by K. pneumoniae” value in [7] (anaerobic) is listed as “not utilised”.
On to `N[C@@H](Cc1c[nH]cn1)C(=O)O` [histidine, L-histidine], for which the “Use … to support E. faecalis growth” value in assay [1] is on record as “could use”. Further, in assay [8], the “Use … to support E. faecium growth” value is “could use”.
With `N[C@@H](Cc1ccc(O)cc1)C(=O)O` [tyrosine, L-tyrosine], in the assay on NDM-1 Escherichia coli [3] (aerobic), the “Use … to support E. coli growth” value is “able to grow”. Also, the “Utilisation of nutrient by E. cloacae” value in [5] (aerobic) and in assay [5] (anaerobic) was “not utilised” in each case.
Take `CC(C)[C@H](N)C(=O)O` [valine, L-valine]: in the assay with NDM-1 Escherichia coli [3] (anaerobic), the “Use … to support E. coli growth” value is listed as “could use”. Further, the “Use … to support E. faecalis growth” value in assay [1] was “could use”. Moreover, the “Use … to support E. faecium growth” value in [8] was “could use”.
